Laboratory results as given in US8071810B2, “C5a receptor antagonists” (Jerini AG, priority 2005, dated 2011).
Values after ≈ are worked out from the molar mass of the structure shown.

Experiments:
C5a induced neutropenia = C5a induced neutropenia in gerbils (Example 35); type: in vivo, gerbils (Meriones unguiculatus); conditions: gerbil
Text: C5a induced neutropenia is a model for shock induced diseases (e.g. septic shock), where amongst others the systemic role of C5a (blood pressure decrease, neutropenia) plays an important role. The reason for the decrease of the neutrophils in the circulation is their binding to the vessel walls due to the C5a stimulus. These processes of neutrophil recruitment are playing an important role in many other diseases like reperfusion injury. […]
Male gerbils (Meriones unguiculatus) are anaesthesized i.p. with ketamine (80 mg/kg) and xylazine (12 mg/kg). The animals are intubated and a catheter is inserted in the jugular vene and the animals are subjected to the following procedure:
1. The gerbils are pre-treated with vehicle or the compounds of the present invention 80 (3 mg/kg) or 131 (1 mg/kg) via i.v. infusion.
One minute before compound treatment a blood sample is taken.
2. 10 minutes after the infusion of the compounds the gerbils are treated i.v. with 100 μg/kg hrC5a. […]
White blood cell counts are measured with a haematology-cell-counter. […]
The differential cell count is determined as the sum of neutrophils, eosinophile, easophile, lymphocytes and monocytes from 100 cells. Then, the percentage of neutrophils in relation to all white blood cells is determined. […]

[1] = Solubility in aqueous HEPES buffer by HPLC (Example 33); type: physicochemical; conditions: kinetic from dmso stock
Protocol: To determine the solubility the compound to be measured is dissolved (e.g, […] of a 5 mM solution in DMSO) in organic solvent (e.g. 198 μl DMSO) as well as in aqueous buffer solution (e.g. 198 μl HEPES buffer). Both solutions are analyzed via analytical HPLC and the areas under the peaks are compared. The value for the organic solution is taken as 100%.

[2] = biological target: T1, human C5a receptor (CD88) (Homo sapiens, UniProt P21730); test: C5a induced enzyme (glucosaminidase) release assay in RBL cells expressing the human C5a receptor (Example 28); type: cell-based; conditions: inhibition of C5a induced enzyme release, RBL cells with human C5aR; read-out: Activity-range (antagonistic activity, IC50 enzyme release)
T1 construct: expressed in transfected cells; host or cells: rat basophilic leukemia (RBL) cells, stably transfected
T1 sequence (P21730 1-350): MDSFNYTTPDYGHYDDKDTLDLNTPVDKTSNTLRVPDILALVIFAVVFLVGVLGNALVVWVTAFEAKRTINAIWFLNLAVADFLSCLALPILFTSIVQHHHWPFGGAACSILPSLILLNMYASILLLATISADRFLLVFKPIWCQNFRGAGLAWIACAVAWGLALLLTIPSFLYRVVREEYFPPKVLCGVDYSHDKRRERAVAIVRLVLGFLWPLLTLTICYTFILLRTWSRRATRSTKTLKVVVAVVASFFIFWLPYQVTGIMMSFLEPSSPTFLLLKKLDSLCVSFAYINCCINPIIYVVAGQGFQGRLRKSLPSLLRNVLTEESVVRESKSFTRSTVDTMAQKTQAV
Summary of the method: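 Rat basophilic leukemia (RBL) cells expressing human C5a receptor, at 2×10^6 cells/ml, primed with cytochalasin B, then incubated with test compound 10 min at 37 °C.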

C5a receptor [3] = biological target: T2, C5a receptor (Homo sapiens, UniProt P21730); conditions: cited from earlier work
T2 sequence (P21730 1-350): T1 sequence (P21730 1-350)

C5a receptor [4] = biological target: T2, C5a receptor; conditions: cited from earlier work; remark: listed apart in the source
[5] = Stability (shelf life) as solid TFA salt, RP-HPLC (Example 25); type: physicochemical; conditions: light, room temperature, up to 7 days
Protocol: The fractions containing the desired compound are lyophilized. In this way 1-40 mg of the compounds 11 and 13 are isolated as solid. Due to the basic amino groups the compounds are obtained as TFA salts. 0.5-10 mg of the solid are stored under the influence of light at room temperature to determine their stability over time.
The conditions were as follows:
FIG. 1 A): after purification via HPLC (solution in MeCN/H2O/TFA),
FIG. 1 B) after lyophilization (0 days of storage as solid)
FIG. 1 C) after 7 days of storage as solid

C5a receptor [6] = biological target: T2, C5a receptor; conditions: cited from earlier work; remark: listed apart in the source

CCc1c(N)cc(Cl)c(CC)c1NC(=O)N(c1ccc(NC)cc1)[C@@H](C)c1ccc(Cl)cc1 [compound 131, (S)-3-(3-amino-5-chloro-2,6-diethyl-phenyl)-1-[1-(4-chloro-phenyl)-ethyl]-1-(4-methylamino-phenyl)-urea]
Effect on C5a induced neutropenia (C5a induced neutropenia; 1 mg/kg i.v. infusion 10 min before 100 μg/kg hrC5a): significantly reduces C5a induced neutropenia

CCc1ccc(N(C(=O)Nc2c(CC)c(N)cc(Cl)c2CC)[C@@H](C)c2ccc(Cl)cc2)cc1 [compound 80, (S)-3-(3-amino-5-chloro-2,6-diethyl-phenyl)-1-[1-(4-chlor-phenyl)-ethyl]-1-(4-ethyl-phenyl)-urea]
solubility [1]: 4 µM (≈ 1.94 µg/mL)
Effect on C5a induced neutropenia (C5a induced neutropenia; 3 mg/kg i.v. infusion 10 min before 100 μg/kg hrC5a): significantly reduces C5a induced neutropenia
IC50 [2]: < 60 nM

CC(C)Cc1ccc([C@@H](C)C(=O)NCCC[N+]2(C)CCCCC2)cc1.[I-] [Compound 6]
activity in a chemotaxis assay (C5a receptor [3]): 24 µM

NC(N)=Nc1ccc(OCCc2ccccc2)c(-c2ccccc2)c1 [Compound 5]
activity (C5a receptor [4]): 0.8 µM

CC(C)c1ccc(N(Cc2ccc(N(C)C)cc2)C(=O)Nc2c(C(C)C)cccc2C(C)C)cc1 [Compound 11, 3-(2,6-diisopropyl-phenyl)-1-(4-dimethylamino-benzyl)-1-(4-isopropyl-phenyl)-urea, reference compound]
Stability on storage as solid [5]: not stable
binding affinity to the C5a receptor (C5a receptor [6]): 100 nM
IC50 [2]: 200 to 5000 nM
